Experimental data: patent publication US11970708B2, “Gene therapy vector with minimizing recombination, recombinant retrovirus comprising the vector, and pharmaceutical composition for preventing or treating cancer comprising the recombinant retrovirus” (ARTICURE INC., priority 2020, dated 2024)

Columns and labels:
[1] = test system: U-87MG cells; experiment: Cell death of virus-infected cells upon prodrug (GCV, 5-FC) treatment, optical microscope; design: species or system human; settings: MuLV env-based vectors, FIG. 16
[2] = test system: U87MG cells; experiment: Western blotting of thymidine kinase (TK) and yeast cytosine deaminase (yCD) protein in infected cells; type: cell-based, human
Protocol: After 3 days of initial infection, p1(passage 1)˜p10 cells were harvested and resuspended in 100 ? of T-PER tissue extraction agent (PIERCE, 78510)+1× proteinase inhibitor. Thereafter, the cells were broken by freezing-thawing three times, and the cytoplasmic supernatant was recovered by centrifugation at 13,000 rpm for 10 minutes. After quantifying the protein amount using BCA, 20 μg of cell lysate was taken and mixed with SDS sample loading dye to 1%. After reacting for 5 minutes in a 100° C. heat block, the reaction mixture was moved to ice and reacted for 2 minutes. Then, the reactant was loaded on 10% (TK) or 13.5% (yCD) SDS-PAGE gel, followed by electrophoresis. Upon completion of the electrophoresis, the protein was transferred to a NC (nitrocellulose) membrane at 90 V for 2 hours, and then put into a blocking solution (5% skim milk in 1X TBS-T), followed by reaction at room temperature for 1 hour. […] Then, the membrane was washed 4 times with 1× TBS-T at room temperature for 10 minutes, reacted in an ECL (enhanced chemiluminescence, Bio-rad Cat No. 170-5062) solution, and then analyzed in a chemiluminescence imaging system (ChemiDoc, Biorad CA). […]

[3] = test system: U-87MG cells; experiment: Cell death of virus-infected cells upon prodrug (GCV, 5-FC) treatment, optical microscope; design: species or system human; settings: GaLV env-based vectors; prodrugs GCV 30 μg/ and 1 mM 5-FC; FIG. 12
Protocol: Specifically, the spRRVe-TK/sRRVgp-sEF1α-hopt-yCD virus was co-transfected into the 293T cell line using PLUS reagent (Invitrogen) and lipofectamine (Invitrogen). After 2 days, the supernatant of the virus was recovered, and U-87MG cells passaged in a 6-well plate at the density of 1.5×10^5 cells/well the previous day were infected with the virus and polybran at a concentration of 8 μg/ ? for 8 hours. Five days after infection (postinfection 5d), the cell supernatant was taken and re-infected to U-87MG cells passaged in a 6-well plate at the density of 1.5×10^5 cells/well the previous day (p1), and then sequentially infected up to p4 in the same way. Cells at each stage of infection were treated with trypsin-EDTA to make single cells, and passaged in a 12-well plate at the density of 1.5×10^5 cells/well, and from the next day after the passage, 30 μg/ ? of GCV and 1 mM 5-FC were treated for […], respectively, to confirm cell death.
Specifically, the virus containing spRRVe-F4-hopt-yCD/sRRVgp-TK, spRRVe-F4-hopt-yCD/sRRVgp-F1-TK, spRRVe-F4-hopt-yCD/sRRVgp-F2-TK, spRRVe-F4-hopt-yCD/sRRVgp-F3-TK and spRRVe-F4-hopt-yCD/sRRVgp-F4-TK was co-transfected into the 293T cell line using PLUS reagent (Invitrogen) and lipofectamine (Invitrogen). […]

[4] = test system: brain tumor cell line U87MG; experiment: Recombination type analysis by genomic DNA PCR after serial virus infection (passages); type: cell-based, human; settings: spRRVe-yCD/sRRVgp-TK virus
Protocol: After 3 days of initial infection, the cultured supernatant was taken and re-infected to new U87MG, and the infected U87MG cell line was recovered and genomic DNA was isolated.
The replicating-retrovirus vector for gene therapy is highly likely to cause recombination because the size of genomic RNA is increased by the introduced foreign gene and non-homologous sequences are added. Therefore, in order to construct an efficient and stable replicating-retrovirus vector for gene therapy, it is very important to confirm the presence and degree of recombination at the development stage.
Specifically, polymerase chain reaction was performed using the primers listed in Table 1 below capable of specifically amplifying the env vector. […] 100 ng of genomic DNA, 1X reaction buffer, 0.25 mM dNTP, 0.2 pmol forward primer, 0.2 pmol reverse primer, and 0.2 unit Taq polymerase were added to a PCR reaction tube, and sterilized distilled water was added to make the final volume of 20 ? . Then, After PCR was performed under the conditions shown in Table 1 below, the amplified DNA was loaded on a 1% agarose gel to confirm the PCR amplification product, thereby confirming the infectivity of the virus and whether the recombination occurred. […]

sRRVe-TK: MuLV env vector, 646 bp MCMV promoter, TK gene (SEQ. ID. NO: 33)
cell death upon prodrug treatment [1]: cell death is induced
thymidine kinase (TK) protein expression ([2]; MuLV env-based vectors, FIG. 15): continuously expressed

spRRVe-TK: GaLV env vector, 646 bp MCMV promoter, TK gene (SEQ. ID. NO: 27)
cell death upon prodrug treatment [3]: cell death is induced
thymidine kinase (TK) protein expression ([2]; GaLV env-based vectors with sRRVgp-sEF1α-hopt-yCD, 0.1 MOI, p1-p10, FIG. 10): continuously expressed

spRRVe-yCD: GaLV env vector with full-length MCMV promoter and yCD gene (SEQ. ID. NO: 25)
virus proliferation and infection (PCR products detected) ([4]; day 3 of initial infection and passages 1 to 3): virus proliferation and infection progressed
passage from which PCR products smaller than the expected amplification product were detected (recombination) ([4]; full-length MCMV promoter, 2E7 gc, GaLV 1624F/MFGSacIR primers, up to passage 3): 2 passage
